The structures appear in SMILES notation. Where a name gives a salt, the structure may show the parent alone.

The target in the experiment is GSK3β (Homo sapiens (Human), UniProt P49841). The experiment can be described thus: In vitro biochemical GSK3β inhibition assay (fluorescence, NADH-coupled). The settings on record: 5 nM GSK3β, 40 μM substrate GSM, 50 μM ATP, 30° C., 2 hours. The protocol: The inhibitory activity of active substances is determined in a biochemical assay. The ingredients required for this purpose are mixed in a black 384-well microtiter plate with transparent base (from Greiner, catalog number 781092). The requirements in this connection for each well of the 384-well microtiter plate are 5 nM GSK3β (from Upstate, catalog number xy), 40 μM GSK3β substrate GSM (sequence H-RRRPASVPPSPSLSRHS-(pS)-HQRR, from Upstate, catalog number 2-533), 30 μM nicotinamide adenine dinucleotide NADH (Roche Diagnostics, catalog number 10107735), 50 μM adenosine triphosphate ATP (from Sigma, catalog number A7966) and 2 mM phosphoenolpyruvate (from Roche, catalog number 128112). The required reaction buffer in which the biochemical reaction takes place consists of 50 mM Trizma hydrochloride Tris-HCl pH: 7.5 (from Sigma, catalog number T3253), 5 mM magnesium chloride MgCl2 (from Sigma, catalog number M8266), 0.2 mM DL-dithiothreitol DTT (from Sigma, catalog number D9779), 2 mM ethylenediaminetetraacetic acid EDTA (from Sigma, catalog number E6758), 0.01% Triton X-100 (from Sigma, catalog number T8787) and 0.05% bovine serum albumin BSA (from Sigma, catalog number B4287).
Active substances are dissolved in dimethyl sulfoxide DMSO (from Sigma, catalog number D8418) in a concentration of 10 mM. Active substances are added in serial concentrations of 10 μM, 1 μM, 0.1 μM, 0.01 μM, 0.001 μM, 0.0001 μM, 0.00001 μM, 0.000001 μM to the mixtures of the biochemical reaction. As control, dimethyl sulfoxide is added instead of substance in a final concentration of 0.1%.
The reaction is incubated at 30° C. for 2 hours and then the resulting fluorescence is measured in a Tecan Safire-XFLUOR4 instrument, version V4.50 (serial number 12901300283) with the specifications: measurement mode—fluorescence measured from below, extinction wavelength 340 nm, emission wavelength 465 nm, slit width extinction 5 nm, slit width emission 5 nm, gain mode 120, delay 0 μs, number of light flashes per measurement 3, and an integration time of 40 μs.
The activity of the active substances is calculated in relation to these 0% and 100%.

Sequence of GSK3β (P49841 whole entry, species assumed): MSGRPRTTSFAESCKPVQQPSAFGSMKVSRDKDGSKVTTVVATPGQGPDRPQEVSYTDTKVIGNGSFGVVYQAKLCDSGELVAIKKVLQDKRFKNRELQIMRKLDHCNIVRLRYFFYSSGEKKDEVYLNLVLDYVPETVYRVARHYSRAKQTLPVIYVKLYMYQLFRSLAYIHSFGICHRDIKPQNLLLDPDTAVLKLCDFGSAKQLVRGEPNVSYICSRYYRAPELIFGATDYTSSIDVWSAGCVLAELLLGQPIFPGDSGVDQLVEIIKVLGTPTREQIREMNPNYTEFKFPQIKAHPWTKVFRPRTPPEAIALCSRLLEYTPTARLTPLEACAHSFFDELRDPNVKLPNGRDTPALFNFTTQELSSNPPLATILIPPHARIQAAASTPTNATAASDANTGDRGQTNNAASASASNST

Turning to `N#Cc1sc(NCCNc2nc(-c3ccc(Cl)cc3Cl)cn3nc(C(=O)NCC(=O)O)cc23)nc1N` [Example 24], the midpoint of inhibition, the IC50, lay at 5 nM. In other words, the single-digit nanomolar range.
The same measure for `CCOC(=O)c1cc2c(N3CCCC(Nc4nc(N)c(C(C)=O)s4)C3)nc(-c3ccc(Cl)cc3Cl)cn2n1` (stereo not shown) [Example 17, Ethyl 4-{3-[(5-acetyl-4-amino-1,3-thiazol-2-yl)amino]piperidin-1-yl}-6-(2,4-dichlorophenyl)pyrazolo[1,5-a]pyrazine-2-carboxylate trifluoroacetate]: 8 nM; for `CN1CCN(CCNC(=O)c2cc3c(NCCNc4ccc(C#N)cn4)nc(-c4ccc(Cl)cc4Cl)cn3n2)CC1` [Example 5]: 30 nM; for `Cc1nc(C)n2nc(-c3ccccc3)nc(NCCNc3ccc(C#N)cn3)c12` [Example 9, 6-({2-[(5,7-Dimethyl-2-phenylimidazo[5,1-f][1,2,4]triazin-4-yl)amino]ethyl}amino)nicotinonitrile]: 310 nM.
Take `N#Cc1ccc(NCCNc2nc(-c3ccc(Cl)cc3Cl)cn3nc(CNC4CC4)cc23)nc1` [Example 58]: it took 80 nM to reach half-maximal inhibition (IC50).
On to `N#Cc1sc(NC2CCCN(c3nc(-c4ccc(Cl)cc4Cl)cn4nc(C(=O)O)cc34)C2)nc1N` (stereo not shown) [Example 19], for which the IC50 (commonly the concentration needed to halve the response being measured) stood at 3 nM. This IC50 lies about 27-fold lower than the previous one.
Under `N#Cc1ccc(NCCNc2nc(-c3ccc(Cl)cc3Cl)cn3nc(C(=O)O)cc23)nc1` [Example 4, 4-({2-[(5-Cyanopyridin-2-yl)amino]ethyl}amino)-6-(2,4-dichlorophenyl)pyrazolo[1,5-a]pyrazine-2-carboxylic acid hydrochloride] stands 21 nM.

For the origin of these results see US8476267B2, “Imidazo-, pyrazolopyrazines and imidazotriazines and their use” (Bayer Intellectual Property GmbH, priority 2007, dated 2013).
